Entries after “also recorded” stand apart in the source; their conditions may differ.
How the values were obtained:
[1] = system: androgen receptor (AR full length and AR variant 7) in LNCaP, LAPC-4, 22RV1 cells; test: Androgen receptor expression in prostate cancer cell lines; assay type: cell-based
Method: Panels A-C, Prostate cancer cell lines LNCaP (A), LAPC-4 (B), and 22RV1 (C) were treated with inhibitor at indicated concentrations for indicated incubation times. FL, AR full length; V7, AR variant 7.
(§1) FIG. 10: TKI synergizes AR-ASO against AR expression and the AR signal pathway. […] MTS assay of LNCaP treated for 3 days with 1 uM TKI or 1 uM AR-ASO (AR-ASO-1) in the presence of the titrations of the paired drug.
Similar results have been obtained with Bcl-2.

LNCaP cells = test: MTS cytotoxicity assay of TKI plus AR-ASO; assay type: cell-based; conditions: 3 days, 1 uM TKI or 1 uM AR-ASO with titration of the paired drug
Method: as §1

[2] = system: HCT-116 EGFP-miR21 tumor microspheroids; test: Oligo penetration into tumor microspheroids, confocal microscopy; assay type: cell-based, human
Method: HCT-116 cells were transfected with a plasmid that expresses EGFP under the control of mir-21. When the cells express endogenous mir-21, the expression of EGFP is silenced. These cells were grown into tumor microspheroids, which were treated with an anti-mir21 mix mer oligonucleotide under gymnotic conditions (i.e., no carriers, no conjugations). When the anti-mir21 mix mer (product of Santaris Pharma, Horsholm, Denmark) enters the cells, it prevents the binding of the endogenous mir21 to its complementary sites on the 3′UTR of the EGFP gene. EGFP is then expressed and the cells glow green. Applicants discovered, by confocal microscopy, that the penetration of the anti-mir21 into the tumor microspheroid was only approximately 3 cells deep. Applicants verified this by treating the microspheroids with a Cy5-labeled anti-Bcl-2 phosphorothioate LNA gapmer. Here again, the penetration was only about 3 cell layers deep. Applicants then wanted to increase the oligo penetration and increase the amount of EGFP produced per cell. Applicants then began to screen a library of tyrosine kinase inhibitors (TKIs). These were added (100 nm-1 uM) to the media in addition to the oligo. Applicants examined 4 TKIs: Sorafenib was ineffective. […] This work has tremendous practical utility as it provides a way of screening for active oligos in a non-animal model, and provides a way to improve oligo penetration in tumors.
The HCT-116 EGFP-miR21 stable, clonal cell line was used to create the microspheroids in 96-well hanging-drop plates (Perfecta 3D, Biometrix Inc., Ann Arbor, Mich.). Following trypsinization, the cells were lifted and re-suspended at a density of 3×10^5 cells in 300 μL DMEM (Irvine Scientific, Santa Ana, Calif., USA) supplemented with 10% fetal calf serum (Irvine Scientific), 1 mM L-glutamine, 5% non-essential amino acids. To improve the 3D structure of the spheroids, 2.5% Matrigel™ can be added to the cell seeding solution. […]
All microspheroids were incubated for additional 5 days and analyzed with a Zeiss confocal microscope. […]

HCT116-GFPmiR21 cells [3] = test: Drug screen: EGFP reactivation by anti-miR21 oligo plus compound (ASO uptake and function); assay type: cell-based, human; conditions: for ASO uptake (eGFP activation), FIG. 3: anti-mir21 + drug; for TKI effect on oligo penetration and EGFP produced per cell: TKI 100 nm-1 uM added to the media in addition to the oligo
HCT116-GFPmiR21 cells [4] = test: ASO intracellular release: anti-miR21 pretreatment, wash, then compound; assay type: cell-based, human; conditions: then drug
Method: A robotic screening of a library of tyrosine kinase inhibitors (TKIs) was performed. […] These compounds are under investigation with the aim of determining the mechanism and the lowest concentration required for maximal enhancement of ASO function. For the 14 compounds identified as active in the initial screen, EGFP reactivation was monitored every day for up to 6 days. To determine if any compound affected ASO intracellular release, cells were first treated with 1 μM anti-miR21 PS-mixmer. The next day the media was removed and cells were washed twice with PBS. After adding fresh media the cell were treated with 1 μM of each active compound. Since ASO uptake had already occurred, any enhancement of EGFP expression in active compound-treated cells would be an indication of improved ASO intracellular release.

CK1 (S. pombe) = conditions: cited from earlier work
mink lung cells = conditions: read-out: IC50 for transcription activation in mink lung cells; cited from earlier work
[5] = system: NIH 3T3 mouse fibroblasts; conditions: read-out: IC50 for TGF-b-dependent cellular growth in NIH 3T3 mouse fibroblasts; cited from earlier work
PI3-Kα and δ = conditions: read-out: IC50 for PI3-Kα and δ; unit given as mM; cited from earlier work
IP3-K = conditions: cited from earlier work
[6] = system: IL-1 production in human monocytes; conditions: read-out: IC50 for inhibiting IL-1 production in human monocytes; cited from earlier work

For `O=C1Nc2cc(Br)ccc2/C1=C1/Nc2ccccc2/C1=N/O` [Compound 6-BIO], the Androgen receptor downregulation ([1]; LNCaP, LAPC-4, 22RV1, AR full length and AR-V7) was “can downregulate both forms; also recorded: downregulates”, the “Synergy with AR antisense oligo against AR expression and AR signal pathway” value ([1]; combined with AR-ASO, LNCaP and LAPC-4, 2 days) was “synergistic; also recorded: synergizes” and the “Cytotoxicity of the combination of TKI and AR-ASO (MTS assay)” value (LNCaP cells) was “did not show increased cytoxicity”.

In the case of `Cc1ccc(NC(=O)c2ccc(CN3CCN(C)CC3)cc2)cc1Nc1nccc(-c2cccnc2)n1` [imatinib, 4-[(4-methylpiperazin-1-yl)methyl]-N-(4-methyl-3-{[4-(pyridin-3-yl)pyrimidin-2-yl]amino}phenyl)benzamide], the “Penetration of the anti-mir21 oligo in tumor microspheroids” value ([2]; TKI 100 nm-1 uM with oligo) is reported as “increased penetration”, the “Penetration of the Cy5-labeled anti-Bcl-2 oligo in tumor microspheroids” value ([2]; TKI with oligo) is reported as “increased penetration was also seen” and the “ASO uptake (eGFP activation), FIG. 3” value (HCT116-GFPmiR21 cells [3]) is reported as “Increased uptake”. For the same molecule, the “EGFP expression in tissue culture” value (HCT116-GFPmiR21 cells [3]; with anti-mir21 oligo, TKI 100 nm-1 uM) was “dramatically increased” and the “ASO release (eGFP activation), FIG. 3” value (HCT116-GFPmiR21 cells [4]) was “increased release”.

For `CNC(=O)c1cc(Oc2ccc(NC(=O)Nc3ccc(Cl)c(C(F)(F)F)c3)cc2)ccn1` [Sorafenib], the “TKI effect on oligo penetration and EGFP produced per cell” value (HCT116-GFPmiR21 cells [3]) was “ineffective” and the “ASO uptake (eGFP activation), FIG. 3” value (HCT116-GFPmiR21 cells [3]) was “Decreased uptake”.

For `c1ccc(-c2n[nH]cc2-c2ccnc3ccccc23)nc1`, the IC50 (mink lung cells) is listed as 0.047 µM and the IC50 [5] is listed as 0.089 µM.

In the case of `O=C1NC(=O)/C(=C/c2ccc3c(c2)OC(F)(F)O3)S1`, the IC50 (PI3-Kα and δ) is given as over 0.02 mM.

For `O=[N+]([O-])c1ccc(CNc2nc(NCc3cccc(C(F)(F)F)c3)nc3[nH]cnc23)cc1`, the IC50 (IP3-K) is listed as 10.2 µM.

In the case of `CS(=O)(=O)c1ccc(-c2nc(-c3ccc(F)cc3)c(-c3ccncc3)[nH]2)cc1`, the IC50 [6] is listed as 0.2 µM.

For `Cc1cn(-c2cc(NC(=O)c3ccc(C)c(Nc4nccc(-c5cccnc5)n4)c3)cc(C(F)(F)F)c2)cn1` [nilotinib, 4-methyl-N-[3-(4-methyl-1H-imidazol-1-yl)-5-(trifluoromethyl)phenyl]-3-[(4-pyridin-3-ylpyrimidin-2-yl)amino]benzamide], the “TKI effect on oligo penetration and EGFP produced per cell” value (HCT116-GFPmiR21 cells [3]) was “shown to have activity”.

With `COc1cccc2c1C(=O)c1c(O)c3c(c(O)c1C2=O)C[C@@](O)(C(=O)CO)C[C@@H]3O[C@H]1C[C@H](N)[C@H](O)[C@H](C)O1` [Doxorubicin] the “Penetration into tumor spheroids (confocal Z-stacks)” value ([2]; FIG. 4-6) was “more uniform penetration”.
